This experiment concerns primary bone marrow-derived murine dendritic cells. Put plainly: In vitro stimulation of primary bone marrow-derived murine dendritic cells, flow cytometry of surface markers. In kind it is cell-based, BALB/c mice. The note with it: 10 ng/ml c-diGMP, flow cytometry after 12 h and 24 h, versus no stimulus (FIG. 1). As to the method: Experimental protocol: primary bone marrow-derived dendritic cell cultures were obtained from BALB/c mice following in vitro maturation of precursors in the presence of recombinant GM-CSF (5×104 U/ml), according to established protocols, e.g. Link, C., etal, 2004, Eur. J. Immuol, 34(3):899-907. Mature dendritic cells were stimulated with 10 ng/ml of E. coli lypopolysaccharide (LPS) or 10 ng/ml c-diGMP. The stimulation of cells was analyzed by flow cytometry to assess the expression of surface markers which are relevant for their antigen presentation capacity after 12 h and 24 h, respectively.
In order to identify compounds which may have potential as adjuvants for in vivo applications in the field of vaccines, a first in vitro screening based on the use of primary cultures of bone marrow-derived dendritic cells was established. Dendritic cells were selected since they represent the most efficient antigen presenting cells and they play a key role in primary immune responses. In fact, they represent the only cell type able to activate resting T cells initiating primary immune responses in vivo. […] At different time intervals, samples were taken, stained with fluorescent-labeled antibodies specific for cellular markers critical for the antigen presenting capacities of dendritic cells, and analyzed by flow cytometry.
(In flow cytometry, cells or beads pass a laser one at a time.)

Molecules are shown by their SMILES.

For the compound `Nc1nc2c(ncn2[C@@H]2O[C@@H]3COP(=O)(O)O[C@H]4[C@@H](O)[C@H](n5cnc6c(=O)[nH]c(N)nc65)O[C@@H]4COP(=O)(O)O[C@H]3[C@H]2O)c(=O)[nH]1` [c-diGMP, cyclic bis(3′-5′)diguanylic acid], the “expression of CD40 on dendritic cells” value was “up-regulated”.

Values taken from patent US9597391B2, “Cyclic-dinucleotides and its conjugates as adjuvants and their uses in pharmaceutical compositions” (HELMHOLTZ_ZENTRUM FUER INFEKTIONSFORSCHUNG GMBH, priority 2005, dated 2017).
